Measured values reported in ChEMBL document CHEMBL1139487, “Discovery of corticotropin releasing factor 2 receptor selective sauvagine analogues for treatment of skeletal muscle atrophy” (J Med Chem, 2005).

Columns and labels:
[1] = target: T1, Corticotropin-releasing factor receptor 1 (Mus musculus, UniProt P35347); assay: In vitro effective concentration for mouse corticotropin releasing factor 1 receptor
T1 sequence (P35347 whole entry): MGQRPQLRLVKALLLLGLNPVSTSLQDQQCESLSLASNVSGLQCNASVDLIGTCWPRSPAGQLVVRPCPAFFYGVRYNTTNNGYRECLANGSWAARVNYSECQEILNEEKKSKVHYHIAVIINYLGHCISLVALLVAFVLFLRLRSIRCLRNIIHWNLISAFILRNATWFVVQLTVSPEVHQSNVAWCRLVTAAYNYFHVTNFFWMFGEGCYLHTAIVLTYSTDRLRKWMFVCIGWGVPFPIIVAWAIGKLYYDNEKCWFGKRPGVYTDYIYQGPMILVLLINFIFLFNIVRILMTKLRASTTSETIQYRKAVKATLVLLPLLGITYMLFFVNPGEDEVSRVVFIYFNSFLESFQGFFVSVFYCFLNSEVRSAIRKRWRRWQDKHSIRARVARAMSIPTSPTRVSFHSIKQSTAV

[2] = target: Corticotropin-releasing factor receptor 2 (Mus musculus, UniProt Q60748); assay: In vitro effective concentration for mouse corticotropin releasing factor 2 receptor
[3] = target: T2, Corticotropin-releasing factor receptor 1 (Mus musculus) (UniProt P35347); assay: In vitro agonistic activity against mouse corticotropin releasing factor 1 receptor; assay type: functional
T2 sequence (whole entry): T1 sequence (P35347 whole entry)

[4] = target: Corticotropin-releasing factor receptor 2 (Mus musculus) (UniProt Q60748); assay: In vitro agonistic activity against mouse corticotropin releasing factor 2 receptor; assay type: functional
Mus musculus = species: Mus musculus; assay: Selectivity ratio of EC50s for mouse corticotropin releasing factor receptors 1 and 2

Sequence of Corticotropin-releasing factor receptor 2 (Q60748 whole entry): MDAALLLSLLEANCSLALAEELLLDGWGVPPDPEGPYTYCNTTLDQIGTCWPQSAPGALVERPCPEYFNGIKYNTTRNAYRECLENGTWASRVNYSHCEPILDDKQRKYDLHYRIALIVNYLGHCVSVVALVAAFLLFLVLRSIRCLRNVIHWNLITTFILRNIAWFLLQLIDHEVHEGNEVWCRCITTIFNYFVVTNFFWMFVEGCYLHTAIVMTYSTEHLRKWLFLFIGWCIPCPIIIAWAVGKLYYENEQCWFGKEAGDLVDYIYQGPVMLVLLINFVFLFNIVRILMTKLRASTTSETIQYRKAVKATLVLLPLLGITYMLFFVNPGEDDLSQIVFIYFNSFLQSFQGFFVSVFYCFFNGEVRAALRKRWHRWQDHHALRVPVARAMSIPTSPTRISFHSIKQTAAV
Sequence of Corticotropin-releasing factor receptor 2 (Mus musculus) (Q60748 whole entry): as above

| Structure (SMILES) | EC50 [1] [nM] | EC50 [2] [nM] | Emax [3] [%] | Emax [4] [%] | Selectivity (Mus musculus) |
| --- | --- | --- | --- | --- | --- |
| CC[C@H](C)[C@H](NC(=O)[C@@H](NC(=O)[C@H](CC(=O)O)NC(=O)[C@H](CC(C)C)NC(=O)[C@H](CC(C)C)NC(=O)[C@H](CC(C)C)NC(=O)[C@H](CCCN=C(N)N)NC(=O)[C@H](CC(N)=O)NC(=O)[C@H](CC(N)=O)NC(=O)[C@H](C)NC(=O)[C@H](C)NC(=O)[C@H](CCC(N)=O)NC(=O)[C@H](CCC(N)=O)NC(=O)[C@H](CCCCN)NC(=O)[C@H](CCC(=O)O)NC(=O)[C@H](CCCCN)NC(=O)[C@H](CCC(=O)O)NC(=O)[C@H](CCC(N)=O)NC(=O)[C@H](CCCCN)NC(=O)[C@H](CCC(=O)O)NC(=O)[C@@H](NC(=O)[C@H](CCC(=O)O)NC(=O)[C@@H](NC(=O)[C@H](CCSC)NC(=O)[C@H](CCCCN)NC(=O)[C@H](CCCN=C(N)N)NC(=O)[C@H](CC(C)C)NC(=O)[C@H](CC(C)C)NC(=O)[C@@H](NC(=O)[C@@H](NC(=O)[C@@H]1CCCN1C(=O)[C@H](CC(C)C)NC(=O)[C@H](CC(=O)O)NC(=O)[C@@H](NC(=O)[C@H](CO)NC(=O)[C@@H](NC(=O)[C@@H]1CCCN1C(=O)[C@@H]1CCCN1C(=O)CNC(=O)[C@@H]1CCC(=O)N1)[C@@H](C)CC)[C@@H](C)CC)[C@@H](C)CC)[C@@H](C)CC)[C@@H](C)CC)[C@@H](C)CC)[C@@H](C)O)C(=O)O | > 1000 | 14.8 | 4 | 73 | > 68 |
| CC[C@H](C)[C@H](NC(=O)[C@@H](NC(=O)[C@H](CC(=O)O)NC(=O)[C@H](CC(C)C)NC(=O)[C@H](CC(C)C)NC(=O)[C@H](CC(C)C)NC(=O)[C@H](CCCN=C(N)N)NC(=O)[C@H](CC(N)=O)NC(=O)[C@H](CC(N)=O)NC(=O)[C@H](C)NC(=O)[C@H](C)NC(=O)[C@H](CCC(N)=O)NC(=O)[C@H](CCC(N)=O)NC(=O)[C@H](CCCCN)NC(=O)[C@H](CCC(=O)O)NC(=O)[C@H](CCCCN)NC(=O)[C@H](CCC(=O)O)NC(=O)[C@H](CCC(N)=O)NC(=O)[C@H](CCCCN)NC(=O)[C@H](CCC(=O)O)NC(=O)[C@@H](NC(=O)[C@H](CCC(=O)O)NC(=O)[C@@H](NC(=O)[C@H](CCSC)NC(=O)[C@H](CCCCN)NC(=O)[C@H](CCCN=C(N)N)NC(=O)[C@H](CC(C)C)NC(=O)[C@H](CC(C)C)NC(=O)[C@H](Cc1c[nH]c2ccccc12)NC(=O)[C@@H](NC(=O)[C@@H]1CCCN1C(=O)[C@H](CC(C)C)NC(=O)[C@H](CC(=O)O)NC(=O)[C@@H](NC(=O)[C@H](CO)NC(=O)[C@@H](NC(=O)[C@@H]1CCCN1C(=O)[C@@H]1CCCN1C(=O)CNC(=O)[C@@H]1CCC(=O)N1)[C@@H](C)CC)[C@@H](C)CC)[C@@H](C)CC)[C@@H](C)CC)[C@@H](C)CC)[C@@H](C)O)C(=O)O | 562 | 23.4 | 99 | 94 | 24 |
| CC[C@H](C)[C@H](NC(=O)[C@@H](NC(=O)[C@H](CC(=O)O)NC(=O)[C@H](CC(C)C)NC(=O)[C@H](CC(C)C)NC(=O)[C@H](CC(C)C)NC(=O)[C@H](CCCN=C(N)N)NC(=O)[C@H](CC(N)=O)NC(=O)[C@H](CC(N)=O)NC(=O)[C@H](C)NC(=O)[C@H](C)NC(=O)[C@H](CCC(N)=O)NC(=O)[C@H](CCC(N)=O)NC(=O)[C@H](CCCCN)NC(=O)[C@H](CCC(=O)O)NC(=O)[C@H](CCCCN)NC(=O)[C@H](CCC(=O)O)NC(=O)[C@H](CCC(N)=O)NC(=O)[C@H](CCCCN)NC(=O)[C@H](CCC(=O)O)NC(=O)[C@@H](NC(=O)[C@H](CCC(=O)O)NC(=O)[C@@H](NC(=O)[C@H](CCSC)NC(=O)[C@H](CCCCN)NC(=O)[C@H](CCCN=C(N)N)NC(=O)[C@H](CC(C)C)NC(=O)[C@H](CC(C)C)NC(=O)[C@H](Cc1c[nH]c2ccccc12)NC(=O)[C@H](Cc1ccccc1)NC(=O)[C@@H]1CCCN1C(=O)[C@H](CC(C)C)NC(=O)[C@H](CC(=O)O)NC(=O)[C@@H](NC(=O)[C@H](CO)NC(=O)[C@@H](NC(=O)[C@@H]1CCCN1C(=O)[C@@H]1CCCN1C(=O)CNC(=O)[C@@H]1CCC(=O)N1)[C@@H](C)CC)[C@@H](C)CC)[C@@H](C)CC)[C@@H](C)CC)[C@@H](C)O)C(=O)O | 94.6 | 4.7 | 100 | 95 | 20 |
| CC[C@H](C)[C@H](NC(=O)[C@@H](NC(=O)[C@H](CC(=O)O)NC(=O)[C@H](CC(C)C)NC(=O)[C@H](CC(C)C)NC(=O)[C@H](CC(C)C)NC(=O)[C@H](CCCN=C(N)N)NC(=O)[C@H](CC(N)=O)NC(=O)[C@H](CC(N)=O)NC(=O)[C@H](C)NC(=O)[C@H](C)NC(=O)[C@H](CCC(N)=O)NC(=O)[C@H](CCC(N)=O)NC(=O)[C@H](CCCCN)NC(=O)[C@H](CCC(=O)O)NC(=O)[C@H](CCCCN)NC(=O)[C@H](CCC(=O)O)NC(=O)[C@H](CCC(N)=O)NC(=O)[C@H](CCCCN)NC(=O)[C@H](CCC(=O)O)NC(=O)[C@@H](NC(=O)[C@H](CCC(=O)O)NC(=O)[C@@H](NC(=O)[C@H](CCSC)NC(=O)[C@H](CCCCN)NC(=O)[C@H](CCCN=C(N)N)NC(=O)[C@H](CC(C)C)NC(=O)[C@H](CC(C)C)NC(=O)[C@H](Cc1ccccc1)NC(=O)[C@H](CC(C)C)NC(=O)[C@@H]1CCCN1C(=O)[C@H](CC(C)C)NC(=O)[C@H](CC(=O)O)NC(=O)[C@@H](NC(=O)[C@H](CO)NC(=O)[C@@H](NC(=O)[C@@H]1CCCN1C(=O)[C@@H]1CCCN1C(=O)CNC(=O)[C@@H]1CCC(=O)N1)[C@@H](C)CC)[C@@H](C)CC)[C@@H](C)CC)[C@@H](C)CC)[C@@H](C)O)C(=O)O | 103 | 10 | 93 | 88 | 10 |
| CC[C@H](C)[C@H](NC(=O)[C@@H](NC(=O)[C@H](CC(=O)O)NC(=O)[C@H](CC(C)C)NC(=O)[C@H](CC(C)C)NC(=O)[C@H](CC(C)C)NC(=O)[C@H](CCCN=C(N)N)NC(=O)[C@H](CC(N)=O)NC(=O)[C@H](CC(N)=O)NC(=O)[C@H](C)NC(=O)[C@H](C)NC(=O)[C@H](CCC(N)=O)NC(=O)[C@H](CCC(N)=O)NC(=O)[C@H](CCCCN)NC(=O)[C@H](CCC(=O)O)NC(=O)[C@H](CCCCN)NC(=O)[C@H](CCC(=O)O)NC(=O)[C@H](CCC(N)=O)NC(=O)[C@H](CCCCN)NC(=O)[C@H](CCC(=O)O)NC(=O)[C@@H](NC(=O)[C@H](CCC(=O)O)NC(=O)[C@@H](NC(=O)[C@H](CCSC)NC(=O)[C@H](CCCCN)NC(=O)[C@H](CCCN=C(N)N)NC(=O)[C@H](CC(C)C)NC(=O)[C@H](CC(C)C)NC(=O)[C@@H](NC(=O)[C@@H](NC(=O)[C@@H]1CCCN1C(=O)[C@H](CC(C)C)NC(=O)[C@H](CC(=O)O)NC(=O)[C@@H](NC(=O)[C@H](CO)NC(=O)[C@@H](NC(=O)[C@@H]1CCCN1C(=O)[C@@H]1CCCN1C(=O)CNC(=O)[C@@H]1CCC(=O)N1)[C@@H](C)CC)[C@@H](C)CC)[C@@H](C)O)[C@@H](C)CC)[C@@H](C)CC)[C@@H](C)CC)[C@@H](C)O)C(=O)O | > 1000 | 19.1 | 42 | 94 | > 52 |
| CC[C@H](C)[C@H](NC(=O)[C@@H](NC(=O)[C@H](CC(=O)O)NC(=O)[C@H](CC(C)C)NC(=O)[C@H](CC(C)C)NC(=O)[C@H](CC(C)C)NC(=O)[C@H](CCCN=C(N)N)NC(=O)[C@H](CC(N)=O)NC(=O)[C@H](CC(N)=O)NC(=O)[C@H](C)NC(=O)[C@H](C)NC(=O)[C@H](CCC(N)=O)NC(=O)[C@H](CCC(N)=O)NC(=O)[C@H](CCCCN)NC(=O)[C@H](CCC(=O)O)NC(=O)[C@H](CCCCN)NC(=O)[C@H](CCC(=O)O)NC(=O)[C@H](CCC(N)=O)NC(=O)[C@H](CCCCN)NC(=O)[C@H](CCC(=O)O)NC(=O)[C@@H](NC(=O)[C@H](CCC(=O)O)NC(=O)[C@@H](NC(=O)[C@H](CCSC)NC(=O)[C@H](CCCCN)NC(=O)[C@H](CCCN=C(N)N)NC(=O)[C@H](CC(C)C)NC(=O)[C@H](CC(C)C)NC(=O)[C@H](CCC(N)=O)NC(=O)[C@H](Cc1c[nH]cn1)NC(=O)[C@@H]1CCCN1C(=O)[C@H](CC(C)C)NC(=O)[C@H](CC(=O)O)NC(=O)[C@@H](NC(=O)[C@H](CO)NC(=O)[C@@H](NC(=O)[C@@H]1CCCN1C(=O)[C@@H]1CCCN1C(=O)CNC(=O)[C@@H]1CCC(=O)N1)[C@@H](C)CC)[C@@H](C)CC)[C@@H](C)CC)[C@@H](C)CC)[C@@H](C)O)C(=O)O | 445 | 21.3 | 100 | 100 | 21 |
| CC[C@H](C)[C@H](NC(=O)[C@@H](NC(=O)[C@H](CC(=O)O)NC(=O)[C@H](CC(C)C)NC(=O)[C@H](CC(C)C)NC(=O)[C@H](CC(C)C)NC(=O)[C@H](CCCN=C(N)N)NC(=O)[C@H](CC(N)=O)NC(=O)[C@H](CC(N)=O)NC(=O)[C@H](C)NC(=O)[C@H](C)NC(=O)[C@H](CCC(N)=O)NC(=O)[C@H](CCC(N)=O)NC(=O)[C@H](CCCCN)NC(=O)[C@H](CCC(=O)O)NC(=O)[C@H](CCCCN)NC(=O)[C@H](CCC(=O)O)NC(=O)[C@H](CCC(N)=O)NC(=O)[C@H](CCCCN)NC(=O)[C@H](CCC(=O)O)NC(=O)[C@@H](NC(=O)[C@H](CCC(=O)O)NC(=O)[C@@H](NC(=O)[C@H](CCSC)NC(=O)[C@H](CCCCN)NC(=O)[C@H](CCCN=C(N)N)NC(=O)[C@H](CC(C)C)NC(=O)[C@H](CC(C)C)NC(=O)[C@H](Cc1c[nH]c2ccccc12)NC(=O)[C@H](CCC(N)=O)NC(=O)[C@@H]1CCCN1C(=O)[C@H](CC(C)C)NC(=O)[C@H](CC(=O)O)NC(=O)[C@@H](NC(=O)[C@H](CO)NC(=O)[C@@H](NC(=O)[C@@H]1CCCN1C(=O)[C@@H]1CCCN1C(=O)CNC(=O)[C@@H]1CCC(=O)N1)[C@@H](C)CC)[C@@H](C)CC)[C@@H](C)CC)[C@@H](C)CC)[C@@H](C)O)C(=O)O | > 1000 | 21.7 | 78 | 99 | > 46 |
